Data taken from US7893074B2, “2, 4-pyrimidinediamines useful in the treatment of neoplastic diseases, inflammatory and immune system disorders” (Novartis AG, priority 2003, dated 2011).
Read-outs that look alike come from different tables or passages of the source.

Columns and labels:
IGF-IR = IGF-IR (Homo sapiens, UniProt P08069); experiment: Cellular Capture ELISA of IGF-I induced autophosphorylation of the IGF-IR; format: cell-based; details: read-out: IGF-1R IC50
Protocol: In this assay the activity of the compounds of the invention against Insulin-like growth factor I (IGF-I) induced autophosphorylation of the IGF-IR is determined.

[1] = system: Mouse mammary carcinoma 4T1 cells; experiment: Anchorage-independent tumor cell growth assay; format: cell-based
Protocol: Cells are cultured for 2 h and inhibitors are added at various concentrations in a final concentration of 0.1% DMSO. After 48 h, cell growth is assayed with the cell counting kit-8 (Wako Pure Chemical), which uses a water soluble tetrazolium salt WST8. Twenty μL of the reagent is added into each well and cells are further cultured for 2 h. The optical density is measured at 450 nm.

[2] = target: Focal Adhesion Kinase (FAK) (Homo sapiens, UniProt Q05397); experiment: FAK assay system (Focal Adhesion Kinase inhibition); format: biochemical
FAK = FAK (Mus musculus, UniProt P34152); experiment: Phos IC50 (phosphorylation); format: cell-based
FAK, sequence (P34152 2-1052): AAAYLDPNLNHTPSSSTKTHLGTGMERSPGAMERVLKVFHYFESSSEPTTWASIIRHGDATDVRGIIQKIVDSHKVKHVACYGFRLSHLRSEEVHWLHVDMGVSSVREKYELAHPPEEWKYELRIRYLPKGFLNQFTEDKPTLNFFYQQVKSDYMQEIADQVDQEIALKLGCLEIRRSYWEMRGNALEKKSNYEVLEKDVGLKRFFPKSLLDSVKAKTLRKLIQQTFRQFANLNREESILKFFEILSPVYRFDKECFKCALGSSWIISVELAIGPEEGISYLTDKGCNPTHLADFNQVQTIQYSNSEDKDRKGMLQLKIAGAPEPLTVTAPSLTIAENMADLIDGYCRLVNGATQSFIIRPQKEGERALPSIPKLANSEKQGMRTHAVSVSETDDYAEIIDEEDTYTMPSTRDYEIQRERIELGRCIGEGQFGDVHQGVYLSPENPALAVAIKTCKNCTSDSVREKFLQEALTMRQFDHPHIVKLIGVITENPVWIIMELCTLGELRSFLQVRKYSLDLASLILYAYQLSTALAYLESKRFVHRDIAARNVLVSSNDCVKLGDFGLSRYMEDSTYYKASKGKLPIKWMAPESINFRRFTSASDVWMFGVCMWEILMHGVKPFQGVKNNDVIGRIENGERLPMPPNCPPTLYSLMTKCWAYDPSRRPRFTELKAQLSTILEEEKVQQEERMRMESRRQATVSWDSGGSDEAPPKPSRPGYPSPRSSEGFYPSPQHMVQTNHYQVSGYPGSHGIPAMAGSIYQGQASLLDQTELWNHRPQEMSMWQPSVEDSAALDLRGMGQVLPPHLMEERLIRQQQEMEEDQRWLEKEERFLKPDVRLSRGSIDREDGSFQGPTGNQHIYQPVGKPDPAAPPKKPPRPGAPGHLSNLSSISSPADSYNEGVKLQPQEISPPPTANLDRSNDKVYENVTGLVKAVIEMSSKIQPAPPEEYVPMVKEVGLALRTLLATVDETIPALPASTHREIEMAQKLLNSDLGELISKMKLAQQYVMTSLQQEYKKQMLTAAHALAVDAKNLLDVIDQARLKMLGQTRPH

Focal Adhesion Kinase (FAK), sequence (Q05397 384-706): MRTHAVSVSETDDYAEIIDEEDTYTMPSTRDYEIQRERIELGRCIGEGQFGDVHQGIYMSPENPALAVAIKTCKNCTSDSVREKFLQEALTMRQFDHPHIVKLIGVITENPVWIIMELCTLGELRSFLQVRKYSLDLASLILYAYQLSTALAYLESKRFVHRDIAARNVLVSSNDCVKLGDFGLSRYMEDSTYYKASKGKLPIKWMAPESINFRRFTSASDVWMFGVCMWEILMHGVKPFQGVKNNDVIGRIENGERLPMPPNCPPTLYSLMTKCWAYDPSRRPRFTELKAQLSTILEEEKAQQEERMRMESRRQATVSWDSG
IGF-IR, sequence (P08069 31-1367): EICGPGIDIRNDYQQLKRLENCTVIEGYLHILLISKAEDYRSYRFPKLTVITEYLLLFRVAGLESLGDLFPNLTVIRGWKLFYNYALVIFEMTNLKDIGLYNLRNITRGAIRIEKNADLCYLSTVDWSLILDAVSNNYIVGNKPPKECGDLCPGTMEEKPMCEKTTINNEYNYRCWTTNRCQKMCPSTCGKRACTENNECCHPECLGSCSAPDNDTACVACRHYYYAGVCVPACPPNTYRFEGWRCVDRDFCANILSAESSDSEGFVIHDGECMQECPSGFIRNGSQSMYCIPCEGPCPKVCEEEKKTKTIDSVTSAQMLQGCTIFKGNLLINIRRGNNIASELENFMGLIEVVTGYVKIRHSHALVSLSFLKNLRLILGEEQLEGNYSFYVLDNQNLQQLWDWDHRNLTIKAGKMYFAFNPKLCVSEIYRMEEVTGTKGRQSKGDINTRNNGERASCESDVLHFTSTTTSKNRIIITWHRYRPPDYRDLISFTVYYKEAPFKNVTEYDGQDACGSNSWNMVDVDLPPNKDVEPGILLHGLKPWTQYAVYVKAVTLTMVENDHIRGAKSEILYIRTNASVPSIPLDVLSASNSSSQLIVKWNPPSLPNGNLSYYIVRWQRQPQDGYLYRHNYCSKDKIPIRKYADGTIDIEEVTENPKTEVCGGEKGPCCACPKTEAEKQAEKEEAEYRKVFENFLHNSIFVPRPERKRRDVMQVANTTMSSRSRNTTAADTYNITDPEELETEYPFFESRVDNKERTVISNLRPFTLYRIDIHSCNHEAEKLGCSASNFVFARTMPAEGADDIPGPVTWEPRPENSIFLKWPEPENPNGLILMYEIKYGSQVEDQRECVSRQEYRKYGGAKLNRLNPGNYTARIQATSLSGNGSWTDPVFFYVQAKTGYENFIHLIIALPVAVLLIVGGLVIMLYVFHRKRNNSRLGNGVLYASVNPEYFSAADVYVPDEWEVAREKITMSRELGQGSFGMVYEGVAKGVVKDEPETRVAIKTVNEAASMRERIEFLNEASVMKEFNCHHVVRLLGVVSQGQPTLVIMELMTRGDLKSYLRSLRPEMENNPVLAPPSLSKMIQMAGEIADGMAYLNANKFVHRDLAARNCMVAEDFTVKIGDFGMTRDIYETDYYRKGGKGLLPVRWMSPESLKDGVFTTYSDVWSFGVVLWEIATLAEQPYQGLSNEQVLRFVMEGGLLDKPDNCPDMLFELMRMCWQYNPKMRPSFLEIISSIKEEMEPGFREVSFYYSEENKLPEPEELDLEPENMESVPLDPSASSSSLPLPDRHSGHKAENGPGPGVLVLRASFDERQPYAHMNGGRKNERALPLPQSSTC

SMILES | IC50 (IGF-IR) [nM] | IC50 ([1]; Mus musculus, 4T1) [nM] | IC50 ([2]; FAK IC50) [nM] | IC50 (FAK) [nM] | IC50 ([2]; read-out: FAK IC50) [nM] | IC50 ([2]; FAK assay system, read-out: FAK inhibition IC50) [nM] | IC50 [1] [nM]
CNS(=O)(=O)c1ccccc1Nc1nc(Nc2ccc(-n3ccnc3C)cc2OC)ncc1Br [Example 3-83] | 680 | 320 | 20 | – | – | – | –
CNS(=O)(=O)c1ccccc1Nc1nc(Nc2cc(-c3cccnc3)ccc2OC)ncc1Br [Example 3-66] | 250 | 70 | – | 80 | 1 | – | –
CNC(=O)c1ccccc1Nc1nc(Nc2ccc(N3CCN(C)CC3)cc2OC)ncc1Cl [Example 7-3] | 270 | 390 | – | 300 | 2.9 | – | –
COc1cc(OC2CCN(C)CC2)ccc1Nc1ncc(Cl)c(Nc2ccccc2S(=O)(=O)NC2CCC2)n1 [Example 24-2] | 390 | 110 | – | 500 | 2.1 | – | –
COc1cc(N2CCOCC2)ccc1Nc1ncc(Cl)c(Nc2ccccc2S(=O)(=O)NC2CCC2)n1 [Example 24-1] | 50 | 440 | – | 110 | 3.6 | – | –
CNS(=O)(=O)c1ccccc1Nc1nc(Nc2cc(OC)c(OC)cc2C)ncc1Br [Example 3-17] | < 80 | 200 | – | 30 | 2.8 | 1 to 5 | –
CNS(=O)(=O)c1ccccc1Nc1nc(Nc2cc(N3CCC(N(C)C)C3)ccc2OC)ncc1Cl (stereo not shown) [Example 20-20] | 100 | – | – | – | 3.12 | – | –
CNS(=O)(=O)c1ccccc1Nc1nc(Nc2ccc(N3CCOCC3)cc2OC)ncc1Br [Example 3-19, 2-[5-Bromo-2-(2-methoxy-4-morpholin-4-yl-phenylamino)-pyrimidin-4-ylamino]-N-methyl-benzenesulfonamide] | 100 | 800 | – | 350 | 6.8 | – | –
CNC(=O)c1ccccc1Nc1nc(Nc2cc(F)ccc2OC)ncc1Br [Example 8-3] | > 10000 | 1000 | – | 220 | 13 | – | –
COc1cc(N2CCOCC2)ccc1Nc1ncc(Cl)c(Nc2ccccc2S(C)(=O)=O)n1 [Example 31-2] | 420 | 290 | 31 | – | – | – | –
CNS(=O)(=O)c1ccccc1Nc1nc(Nc2cc(OC)c(OC)cc2C)ncc1Cl [Example 20-35] | 150 | 90 | – | 90 | 8.7 | – | –
CNS(=O)(=O)c1ccccc1Nc1nc(Nc2ccc(OC)nc2OC)ncc1Br [Example 3-50] | 1190 | 1000 | – | 120 | 13 | – | –
COc1cc(N2CCOCC2)ccc1Nc1ncc(Br)c(Nc2ccccc2S(=O)(=O)N(C)C)n1 [Example 51, 2-[5-bromo-2-(2-methoxy-4-morpholin-4-yl-phenylamino)-pyrimidin-7-ylamino]-N,N-dimethyl-benznensulfonamide] | 200 | 190 | – | 13 | 8.1 | – | –
CNS(=O)(=O)c1ccccc1Nc1nc(Nc2cccc3[nH]ccc23)ncc1Br [Example 3-11] | 200 | 300 | – | 40 | 9 | – | –
CNS(=O)(=O)c1ccccc1Nc1nc(Nc2ccc(OC3CCN(C)CC3)cc2OC)ncc1Cl [Example 20-27] | 290 | 50 | – | 850 | 12 | – | –
CNS(=O)(=O)c1ccccc1Nc1nc(Nc2cc(F)ccc2OC)ncc1Br [Example 3-81] | > 10000 | 980 | – | 520 | 21 | – | –
CCCS(=O)(=O)c1ccccc1Nc1nc(Nc2ccc(N3CCC(C(N)=O)CC3)cc2OC)ncc1Cl [Example 26-5] | 1500 | 230 | 2.1 | – | – | – | –
COc1cc(N2CCC(N(C)C(C)=O)C2)ccc1Nc1ncc(Cl)c(Nc2ccccc2S(=O)(=O)NC(C)C)n1 (stereo not shown) [Example 19-14] | 440 | 1130 | 2.6 | – | – | – | –
CNS(=O)(=O)c1ccccc1Nc1nc(Nc2cccc3cn[nH]c23)ncc1Br [Example 3-13] | 740 | 600 | 58 | – | – | – | –
CNS(=O)(=O)c1ccccc1Nc1nc(Nc2cc(-c3ccncc3)ccc2C)ncc1Br [Example 3-54] | < 80 | – | – | 10 | 0.9 | – | –
CCNC1CCN(c2ccc(Nc3ncc(Cl)c(Nc4ccccc4S(=O)(=O)NC(C)C)n3)c(OC)c2)C1 (stereo not shown) [Example 19-2] | 910 | 380 | 1.6 | – | – | – | –
COc1cc(OCC2CCCN(C)C2)ccc1Nc1ncc(Cl)c(Nc2ccccc2S(=O)(=O)NC(C)C)n1 (stereo not shown) [Example 19-3] | 640 | 90 | < 1 | – | – | – | –
CCNC(=O)c1ccccc1Nc1nc(Nc2ccc(N3CCC(N4CCCC4)CC3)cc2OC)ncc1Cl [Example 9-4] | – | 730 | – | 200 | 13 | – | –
CCOc1ccc(-c2ccccc2)cc1Nc1ncc(Br)c(Nc2ccccc2S(=O)(=O)NC)n1 [Example 3-29] | – | > 10000 | – | 600 | 89 | – | –

SMILES | IC50 (IGF-IR) [nM] | IC50 ([1]; Mus musculus, 4T1) [nM] | IC50 ([2]; FAK IC50) [nM] | IC50 (FAK) [nM] | IC50 ([2]; read-out: FAK IC50) [nM] | IC50 ([2]; FAK assay system, read-out: FAK inhibition IC50) [nM] | IC50 [1] [nM]
CCCS(=O)(=O)c1cc(N2CCN(C)CC2)ccc1Nc1nc(Nc2ccc(F)cc2OC)ncc1Cl [Example 34-8] | – | 1900 | – | > 10000 | 8.7 | – | –
CNC(=O)c1ccccc1Nc1nc(Nc2ccc(N3CCOCC3)cc2OC)ncc1Br [Example 8-2] | – | 990 | – | 500 | 2.4 | – | –
COc1cc(N2CCN3COCC[C@H]3C2)ccc1Nc1ncc(Cl)c(Nc2ccccc2S(=O)(=O)C(C)C)n1 [Example 28-26] | – | 570 | – | 200 | 6.6 | – | –
CNS(=O)(=O)c1ccccc1Nc1nc(Nc2cc(-c3cccc(OC)c3)ccc2C)ncc1Br [Example 3-28] | – | 700 | – | 710 | 43 | – | –
COc1cc(F)ccc1Nc1ncc(Cl)c(Nc2ccccc2S(C)(=O)=O)n1 [Example 31-1] | – | 1600 | – | > 10000 | 30 | – | –
CCC(CC)NS(=O)(=O)c1ccccc1Nc1nc(Nc2ccc(OCCN3CCOCC3)cc2OC)ncc1Cl [Example 23-8] | – | 490 | – | 300 | 6.7 | – | –
CNS(=O)(=O)c1ccccc1Nc1nc(Nc2cccc3c2ccn3CCCN2CCOCC2)ncc1Br [Example 3-45] | – | 20 | – | 20 | 0.9 | – | –
CCCS(=O)(=O)c1ccccc1Nc1nc(Nc2ccc(N3CCNC(=O)C3)cc2OC)ncc1Cl [Example 26-22] | – | – | – | 100 | < 1 | – | 280
CNS(=O)(=O)c1ccccc1Nc1nc(Nc2ccc(OC3CCN(C(C)=O)CC3)cc2OC)ncc1Br [Example 3-74] | – | 150 | – | 100 | 15 | – | –
CNS(=O)(=O)c1ccccc1Nc1nc(Nc2cc(OCC3CCN(C)CC3)ccc2OC)ncc1Cl [Example 20-26] | – | 270 | – | 760 | 5.3 | – | –
CNS(=O)(=O)c1ccccc1Nc1nc(Nc2ccc(OCC3CCN(C)CC3)cc2OC)ncc1Cl [Example 20-25] | – | 60 | – | 210 | 6.2 | – | –
CNS(=O)(=O)c1ccccc1Nc1nc(Nc2cc(C(=O)NC3CCCCC3)ccc2C)ncc1Br [Example 3-23] | – | 500 | – | 390 | 38 | – | –
CNC(=O)c1cc(N2CCCC2)ccc1Nc1nc(Nc2ccc(OC3CCN(C)CC3)cc2OC)ncc1Cl [Example 15-2] | – | 660 | – | > 10000 | 21 | – | –
COc1cc(CN2CCN(C)CC2)ccc1Nc1ncc(Cl)c(Nc2ccccc2S(=O)(=O)C2CC2)n1 [Example 30-5] | – | 290 | – | 2000 | 8.5 | – | –
CCCS(=O)(=O)c1ccccc1Nc1nc(Nc2ccc(F)cc2OC)ncc1Cl [Example 26-30] | – | 760 | – | 1000 | 4.4 | – | –
CNS(=O)(=O)c1ccccc1Nc1nc(Nc2ccc(OCCCN3CCN(C)CC3)cc2OC)ncc1Br [Example 3-72] | – | 60 | – | 110 | 2.1 | – | –
COc1cc(N2CCC[C@H]2CN2CCCC2)ccc1Nc1ncc(Cl)c(Nc2ccccc2S(=O)(=O)NC(C)C)n1 [Example 19-16] | – | 1100 | – | 700 | 2.3 | – | –
COc1cc(NCC(C)(C)CO)ccc1Nc1ncc(Cl)c(Nc2ccccc2S(=O)(=O)NC(C)C)n1 [Example 19-22] | – | 510 | – | 120 | 3.4 | – | –
CCN(CC)C(=O)C1CCCN(c2ccc(Nc3ncc(Cl)c(Nc4ccccc4S(=O)(=O)NC(C)C)n3)c(OC)c2)C1 (stereo not shown) [Example 19-18] | – | 870 | – | 130 | 7 | – | –
COc1cc(N2CCN(C(C)=O)CC2)ccc1Nc1ncc(Cl)c(Nc2ccccc2S(=O)(=O)C(C)C)n1 [Example 28-11] | – | – | – | 500 | 4.2 | – | 630
CNS(=O)(=O)c1ccccc1Nc1nc(Nc2cc(OC)ccc2OC)ncc1[N+](=O)[O-] [Example 1, 2-[2-(2,5-Dimethoxy-phenylamino)-5-nitro-pyrimidin-4-ylamino]-N-methyl-benzenesulfonamide] | – | > 10000 | – | 700 | 140 | – | –
COc1cc(N2CCOCC2)ccc1Nc1ncc(Cl)c(Nc2ccccc2S(=O)(=O)Cc2ccccc2)n1 [Example 34-5] | – | 5100 | – | 360 | 51 | – | –
COc1cc(N2CCC(OC)CC2)ccc1Nc1ncc(Cl)c(Nc2ccccc2S(=O)(=O)C(C)C)n1 [Example 28-18] | – | 2030 | – | > 10000 | 9.1 | – | –
